{
  "source": "paper PMC7048748",
  "about": "“Anxiolytic Drug FGIN-1-27 Ameliorates Autoimmunity by Metabolic Reprogramming of Pathogenic Th17 Cells” (Scientific Reports, 2020)",
  "key": {"Th17 cells": {"test_system": "Th17 cells", "test": "Intracellular metabolites by CE-MS", "format": "cell-based, mouse", "method": "CD4 T cells were differentiated under Th17 polarization conditions and were either treated with DMSO (control) or FGIN-1-27. The error bars represent SD. (a) Genomic browser screenshots of IL-17a, IL-17f and Rorc loci depicting normalized RNA-seq read coverage (RPM) in Th17 cells treated with DMSO or FGIN-1-27 for 24 hours. […] (c) Heat map showing differentially expressed genes encoding glycolytic enzymes in Th17 cells treated with DMSO or FGIN-1-27 for 24 hours (d) Glycolytic metabolites measured in Th17 cells treated with DMSO or FGIN-1-27 for 72 hours. (e) Metabolites in the TCA cycle were measured in Th17 cells treated with DMSO or FGIN-1-27 for 72 hours.\n8 million cells treated with either DMSO or FGIN-1-27 were used for extraction of intracellular metabolites. The cells were washed twice with 5% mannitol and treated with methanol to inactivate the enzymes. Next, the cell extract was treated with Milli-Q water containing internal standards (H3304-1002, Human Metabolome Technologies, inc., Tsuruoka, Japan) and left at rest for another 30 s. The extract was obtained and centrifuged at 2,300 ×g and 4 °C for 5 min and then 800 µL of upper aqueous layer was centrifugally filtered through a Millipore 5-kDa cutoff filter at 9,100 ×g and 4 °C for 120 min to remove proteins. The filtrate was centrifugally concentrated and re-suspended in 50 µL of Milli-Q water for CE-MS analysis. Cationic compounds were measured in the positive mode of CE-TOFMS and anionic compounds were measured in the positive and negative modes of CE-MS/MS according to the methods developed by Soga, et al.[39],[40]. Peaks detected by CE-TOFMS and CE-MS/MS were extracted using automatic integration software (MasterHands, Keio University, Tsuruoka, Japan and MassHunter Quantitative Analysis B.04.00, Agilent Technologies, Santa Clara, CA, USA, respectively) in order to obtain peak information including m/z, migration time (MT), and peak area. The peaks were annotated with putative metabolites from the HMT metabolite database based on their MTs in CE and m/z values determined by TOFMS. The tolerance range for the peak annotation was configured at ±0.5 min for MT and ±10 ppm for m/z. In addition, concentrations of metabolites were calculated by normalizing the peak area of each metabolite with respect to the area of the internal standard and by using standard curves, which were obtained by three-point calibrations. Hierarchical cluster analysis (HCA) and principal component analysis (PCA) were performed by Human Metabolome proprietary software, PeakStat and SampleStat, respectively. Detected metabolites were plotted on metabolic pathway maps using VANTED (Visualization and Analysis of Networks containing Experimental Data) software."}, "[1]": {"test_system": "experimental autoimmune encephalomyelitis (EAE)", "test": "Passive EAE by adoptive transfer of treated 2D2 Th17 cells", "format": "in vivo, mouse", "method": "We interrogated whether FGIN-1-27 can influence Th17 dependent pathology in vivo by using a mouse model of passive EAE in which Th17 cells are responsible for driving immuno-pathogenesis. To this end, we sorted naïve CD4^+ T cells (CD4^+Vβ11^+CD62L^hi) from spleen and lymph nodes of “2D2” T cell receptor (TCR) transgenic mice that specifically recognize myelin oligodendrocyte glycoprotein (MOG) peptide and activated them under Th17 polarizing conditions. The cultures were treated with DMSO or FGIN-1-27 during the Th17 differentiation process and cells were reactivated on day 5 for an additional 48 hours and equal numbers of 2D2 Th17 polarized cells treated either with DMSO or FGIN-1-27 were adoptively transferred to recipient mice.\n(a) Immunophenotyping of 2D2 TCR transgenic CD4^+ T cells for intracellular IL-17 and IFNγ before adoptive transfer. Cultures were treated with DMSO or FGIN-1-27 during Th17 polarization process. (b) Mean clinical scores of mice following the adoptive transfer of 5 × 10^6 2D2 Th17 cells treated with DMSO or 5 × 10^6 2D2 Th17 cells treated with FGIN-1-27. […] The error bars represent SEM. (c) Mean clinical scores of T cell-deficient (Tcrb^−/−) mice following adoptive transfer of 5 × 10^6 2D2 Th17 cells treated with DMSO or 5 × 10^6 2D2 Th17 cells treated with FGIN-1-27. […] The error bars represent SEM. (d) Enumeration of total mononuclear or 2D2 CD4^+ T cells (CD4^+Vβ11^+) in spleens of mice receiving either DMSO or FGIN-1-27 treated 2D2 T cells. Cells were analyzed at the peak of EAE disease (day 15 post-transfer) by flow cytometry. The error bars represent SD. (e) Enumeration of total CNS mononuclear or CNS-infiltrating 2D2 CD4^+ T cells (CD4^+Vβ11^+) in mice receiving either DMSO or FGIN-1-27 treated 2D2 T cells. Cells were analyzed at the peak of EAE disease (day 15 post-transfer) by flow cytometry. The errors bars represent SD. (f) Intracellular cytokine staining of 2D2 CD4^+ T cells (day 15 post-transfer) for IL-17, IFNγ and GM-CSF from the CNS of mice that received either DMSO or FGIN-1-27 treated cells. The error bars represent SD.\nNaïve CD4^+ T cells (CD4^+Vβ11^+CD62L^hi) were sorted from the spleens and lymph nodes of 2D2 TCR transgenic mice and polarized towards Th17 lineage in the presence of irradiated splenocytes (5:1 ratio) and 2.5 μg/ml anti-CD3 (145-2C11, BioXCell), 20 μg/ml anti-IL-4 (11B11, BioXCell), 20 μg/ml anti-IFNγ (XMG1.2, BioXCell), 30 ng/ml mIL-6 and 3 ng/ml hTGF-β1 (Miltenyi Biotec). The following day, cells were treated with either DMSO or FGIN-1-27 (10 μM) and IL-23 (10 ng/ml; R&D Systems) was added after 60 h of activation. On day 5 of culture, cells were reactivated on plates precoated with 2 μg/ml of anti-CD3 and anti-CD28 (PV1, BioXCell) for 48 h, and 5 million cells were adoptively transferred to recipient mice to induce passive-transfer EAE. Classical EAE symptoms were scored daily according to standard criteria: 0, asymptomatic; 1, flaccid tail; 2, hind-limb weakness and impaired righting ability; 3, hind-limb paralysis; 4, front- and hind-limb paralysis; 5, moribund or death."}},
  "data": [
    {"molecule": "CCCCCCN(CCCCCC)C(=O)Cc1c(-c2ccc(F)cc2)[nH]c2ccccc12", "note": "[FGIN-1-27, N, N-di-n-hexyl 2-(4-fluorophenyl) indole-3-acetamide]", "values": [
      {"measurement": "TCA cycle intermediates (citric acid, cis-aconitic acid, 2-hydroxyglutaric acid, malic acid)", "setting": "Th17 cells; 72 hours", "value": "additionally reduced"},
      {"measurement": "lactate", "setting": "Th17 cells; 72 hours", "value": "unchanged levels"},
      {"measurement": "pyruvate", "setting": "Th17 cells; 72 hours", "value": "lower levels"},
      {"measurement": "amino acids", "setting": "Th17 cells; 72 hours post compound treatment", "value": "significant increase"},
      {"measurement": "upper glycolytic intermediates (F6P, F1,6P, 3-PG, 2-PG)", "setting": "Th17 cells; 72 hours, vs DMSO", "value": "substantially reduced"},
      {"measurement": "onset and severity of EAE", "setting": "[1]; T cell deficient (Tcrb−/−) recipient mice, p = 0.0067", "value": "delayed onset and reduced severity of EAE"},
      {"measurement": "2D2 CD4+ T cells recovered from the CNS", "setting": "[1]; day 15 post-transfer", "value": "fewer"},
      {"measurement": "2D2 CD4+ T cells recovered from the spleens", "setting": "[1]; day 15 post-transfer", "value": "higher number"},
      {"measurement": "IFNγ and GM-CSF production of CNS 2D2 CD4+ T cells", "setting": "[1]; day 15 post-transfer", "value": "intact"},
      {"measurement": "percentage and absolute numbers of IL-17 producing 2D2 CD4+ T cells from the CNS", "setting": "[1]; day 15 post-transfer", "value": "significant reduction"},
      {"measurement": "IL-17 producing 2D2 T cells before adoptive transfer", "setting": "[1]; pre-transfer, 10 μM during Th17 polarization", "value": "reduced percentage of IL-17 producing cells"},
      {"measurement": "disease symptoms (mean clinical scores)", "setting": "[1]; recipient mice, 5 × 10^6 treated 2D2 Th17 cells, p < 0.02", "value": "much milder disease symptoms"}
    ]}
  ]
}
